Article PMC5421785, “Citrullination only infrequently impacts peptide binding to HLA class II MHC” (PLoS ONE, 2017)
Read-outs that look alike come from different tables or passages of the source. Square brackets hold non-standard residues; d marks the D form. Ends that are not written are not given here. Peptide text beside a SMILES is read from it. Cit = NC(=O)NCCC[C@H](N)C(=O)O

Tests used:
HLA-DRB1*01:01 = target: T1, HLA-DRB1*01:01 (Homo sapiens, UniProt P01903+P01911, A100R/D57E/F55L/F60I/F76Y/I96L/L162R/M171V/P40L/Q125E/R42F/V115G/Y59C); assay: HLA class II peptide binding, inhibition of radiolabeled peptide binding to purified MHC
T1 construct: EBV transformed homozygous cell lines were used as sources of MHC molecules; endogenous in cells; host or cells: EBV transformed homozygous cell lines

HLA-DRB1*04:01 = target: T2, HLA-DRB1*04:01 (Homo sapiens, UniProt P01903+P01911, A100K/A169T/F76Y/I96L/K127E/L162R/M171V/N62H/P40V/Q125Y/R42H/S133A/S149N/S66Y/V115G/V209L/W38E); assay: as above
T2 construct: EBV transformed homozygous cell lines were used as sources of MHC molecules; endogenous in cells; host or cells: EBV transformed homozygous cell lines

[1] = citrullinated 15-mer (X), purified MHC, inhibition of radiolabeled peptide binding, dash = IC50 >40,000 nM, read-out: DRB1*01:01 binding capacity, Cit peptide (IC50 nM)
[2] = citrullinated 15-mer (X), purified MHC, inhibition of radiolabeled peptide binding, dash = IC50 >40,000 nM, read-out: DRB1*04:01 binding capacity, Cit peptide (IC50 nM)
[3] = citrullinated 15-mer peptide (X = citrulline), purified HLA-DRB1*01:01, read-out: DRB1*01:01 binding capacity, Cit peptide (IC50 nM)
[4] = citrullinated 15-mer peptide (X = citrulline), purified HLA-DRB1*04:01, read-out: DRB1*04:01 binding capacity, Cit peptide (IC50 nM)
[5] = wild-type (unmodified Arg) 15-mer peptide, purified HLA-DRB1*01:01, read-out: DRB1*01:01 binding capacity, WT peptide (IC50 nM)
[6] = wild-type (unmodified Arg) 15-mer peptide, purified HLA-DRB1*04:01, read-out: DRB1*04:01 binding capacity, WT peptide (IC50 nM)

Compound	IC50 (HLA-DRB1*01:01; [3]) [nM]	IC50 (HLA-DRB1*04:01; [4]) [nM]	IC50 (HLA-DRB1*01:01; [5]) [nM]	IC50 (HLA-DRB1*04:01; [6]) [nM]	further results
CC[C@H](C)[C@H](NC(=O)[C@H](CC(=O)O)NC(=O)[C@H](CCC(=O)O)NC(=O)[C@H](C)NC(=O)[C@H](CC(C)C)NC(=O)[C@H](CC(N)=O)NC(=O)[C@@H](N)CC(=O)O)C(=O)N[C@@H](CCSC)C(=O)N[C@@H](CCCNC(N)=O)C(=O)N[C@@H](CC(C)C)C(=O)N[C@@H](CCCNC(=N)N)C(=O)N[C@@H](CCC(=O)O)C(=O)N[C@@H](CCCCN)C(=O)N[C@@H](CC(C)C)C(=O)N[C@@H](CCC(N)=O)C(=O)O [DNLAEDIMXLREKLQ] (H-DNLAEDIM[Cit]LREKLQ-OH)	–	–	–	–	IC50 (HLA-DRB1*01:01; [1]): 4690 nM; IC50 (HLA-DRB1*04:01; [2]): > 40000 nM
CSCC[C@H](NC(=O)[C@H](CCC(=O)O)NC(=O)[C@H](CCCNC(N)=O)NC(=O)[C@H](CCSC)NC(=O)[C@H](CCC(N)=O)NC(=O)[C@H](CCCNC(=N)N)NC(=O)[C@H](CCC(=O)O)NC(=O)[C@H](CC(C)C)NC(=O)[C@H](CO)NC(=O)[C@H](CCC(=O)O)NC(=O)[C@H](CC(N)=O)NC(=O)[C@@H](N)[C@@H](C)O)C(=O)N[C@@H](CCC(=O)O)C(=O)N[C@@H](CCC(=O)O)C(=O)N[C@@H](CC(N)=O)C(=O)O [TNESLERQMXEMEEN] (H-TNESLERQM[Cit]EMEEN-OH)	29700	> 40000	–	–	–
LGVMQGPMGPMGPRG [Collagen 196 WT]	–	–	19	> 40000	–
PGLQGMPGERGAAGI [Collagen 746 WT]	–	–	14	1050	–
CC(C)C[C@H](NC(=O)CNC(=O)[C@H](CCCNC(N)=O)NC(=O)[C@@H]1CCCN1C(=O)CNC(=O)[C@@H](N)CCC(N)=O)C(=O)N1CCC[C@H]1C(=O)NCC(=O)N[C@H](C(=O)N1CCC[C@H]1C(=O)NCC(=O)N[C@H](C(=O)N[C@@H](CC(=O)O)C(=O)NCC(=O)N1CCC[C@H]1C(=O)O)[C@@H](C)O)[C@@H](C)O [QGPXGLPGTPGTDGP] (H-QGP[Cit]GLPGTPGTDGP-OH)	21000	> 40000	–	–	–
CC[C@H](C)[C@H](NC(=O)[C@H](Cc1ccc(O)cc1)NC(=O)[C@H](CC(N)=O)NC(=O)[C@H](C)NC(=O)[C@H](Cc1ccccc1)NC(=O)[C@H](CCCNC(=N)N)NC(=O)[C@H](CC(=O)O)NC(=O)[C@@H](N)CC(N)=O)C(=O)N[C@@H](CC(=O)O)C(=O)N[C@@H](CCCCN)C(=O)N[C@H](C(=O)N[C@@H](CCCNC(N)=O)C(=O)N[C@@H](Cc1ccccc1)C(=O)N[C@@H](CC(C)C)C(=O)N[C@@H](CCC(=O)O)C(=O)O)C(C)C [NDRFANYIDKVXFLE] (H-NDRFANYIDKV[Cit]FLE-OH)	–	–	–	–	IC50 (HLA-DRB1*01:01; [1]): 229 nM; IC50 (HLA-DRB1*04:01; [2]): 5660 nM
CC[C@H](C)[C@H](NC(=O)[C@H](CCCNC(N)=O)NC(=O)[C@H](CO)NC(=O)[C@H](CCC(=O)O)NC(=O)[C@H](CCC(=O)O)NC(=O)CNC(=O)[C@H](CCC(=O)O)NC(=O)[C@H](CC(C)C)NC(=O)[C@H](CC(C)C)NC(=O)[C@H](CCCCN)NC(=O)[C@@H](N)CCCNC(=N)N)C(=O)N[C@@H](CO)C(=O)N[C@@H](CC(C)C)C(=O)N1CCC[C@H]1C(=O)N[C@@H](CC(C)C)C(=O)O [RKLLEGEESXISLPL]	1320	1200	–	–	–
CC(C)[C@H](NC(=O)CNC(=O)[C@@H](NC(=O)[C@@H]1CCCN1C(=O)CN)[C@@H](C)O)C(=O)N[C@H](C(=O)NCC(=O)N1CCC[C@H]1C(=O)N[C@@H](CCCCN)C(=O)NCC(=O)N[C@@H](C)C(=O)N[C@@H](CCCNC(N)=O)C(=O)NCC(=O)N[C@@H](C)C(=O)N[C@@H](CCC(N)=O)C(=O)O)[C@@H](C)O [GPTGVTGPKGAXGAQ] (H-GPTGVTGPKGA[Cit]GAQ-OH)	569	> 40000	–	–	–
TLLIKTVETRDGQVI [Vimentin 441 WT]	–	–	826	6020	–
TGPKGARGAQGPPGA [Collagen 881 WT]	–	–	17000	> 40000	–
GDRGEAGAQGPMGPS [Collagen 1086 WT]	–	–	9550	> 40000	–
CC(C)C[C@H](NC(=O)[C@H](CC(C)C)NC(=O)[C@H](CCCNC(=N)N)NC(=O)[C@@H](NC(=O)CNC(=O)[C@@H]1CCCN1C(=O)[C@@H](NC(=O)[C@H](CO)NC(=O)[C@H](CO)NC(=O)[C@H](CCCNC(N)=O)NC(=O)[C@H](CC(C)C)NC(=O)[C@H](CCCNC(=N)N)NC(=O)[C@@H](NC(=O)[C@H](C)NC(=O)[C@@H](N)CO)C(C)C)C(C)C)C(C)C)C(=O)O [SAVRLXSSVPGVRLL] (H-SAVRL[Cit]SSVPGVRLL-OH)	–	–	–	–	IC50 (HLA-DRB1*01:01; [1]): 0.7 nM; IC50 (HLA-DRB1*04:01; [2]): 11 nM
CC[C@H](C)[C@H](NC(=O)[C@@H](NC(=O)[C@H](CC(=O)O)NC(=O)[C@H](CCC(N)=O)NC(=O)[C@H](Cc1ccc(O)cc1)NC(=O)[C@H](CC(N)=O)NC(=O)[C@H](C)NC(=O)[C@H](C)NC(=O)[C@H](CCC(=O)O)NC(=O)[C@@H](NC(=O)[C@H](C)NC(=O)[C@@H](N)Cc1ccccc1)C(C)C)[C@@H](C)O)C(=O)NCC(=O)N[C@@H](CCCNC(N)=O)C(=O)N[C@@H](CC(C)C)C(=O)O [FAVEAANYQDTIGXL] (H-FAVEAANYQDTIG[Cit]L-OH)	642	768	–	–	–
PGQRGERGFPGLPGP [Collagen 986 WT]	–	–	743	> 40000	–
RSSVPGVRLLQDSVD [Vimentin 71 WT]	–	–	–	–	IC50 (HLA-DRB1*01:01; read-out: DRB1*01:01 binding capacity, WT peptide (IC50 nM)): 261 nM; IC50 (HLA-DRB1*04:01; read-out: DRB1*04:01 binding capacity, WT peptide (IC50 nM)): 4620 nM
CSCC[C@H](NC(=O)[C@H](CCCNC(=N)N)NC(=O)[C@H](CCCNC(N)=O)NC(=O)[C@@H](N)Cc1ccc(O)cc1)C(=O)N[C@@H](Cc1ccccc1)C(=O)NCC(=O)NCC(=O)N1CCC[C@H]1C(=O)NCC(=O)N[C@H](C(=O)N[C@@H](C)C(=O)N[C@@H](CO)C(=O)N[C@@H](CCCNC(=N)N)C(=O)N1CCC[C@H]1C(=O)N[C@@H](CO)C(=O)O)[C@@H](C)O [YXRMFGGPGTASRPS] (H-Y[Cit]RMFGGPGTASRPS-OH)	–	–	–	–	IC50 (HLA-DRB1*01:01; [1]): 252 nM; IC50 (HLA-DRB1*04:01; [2]): 27400 nM
CC(C)[C@H](NC(=O)[C@H](CCC(N)=O)NC(=O)[C@H](CCCNC(N)=O)NC(=O)[C@H](CCCNC(=N)N)NC(=O)[C@H](Cc1ccc(O)cc1)NC(=O)[C@H](CCC(=O)O)NC(=O)[C@@H](NC(=O)[C@H](CO)NC(=O)[C@H](CCC(=O)O)NC(=O)[C@H](CCC(N)=O)NC(=O)[C@H](CCCCN)NC(=O)[C@H](C)NC(=O)[C@@H](N)CCC(N)=O)[C@@H](C)O)C(=O)N[C@@H](CCC(N)=O)C(=O)N[C@@H](CO)C(=O)O [QAKQESTEYRXQVQS] (H-QAKQESTEYR[Cit]QVQS-OH)	1740	7440	–	–	–
QAKQESTEYRRQVQS [Vimentin 311 WT]	–	–	1500	17000	–
CC(C)C[C@H](NC(=O)[C@H](CCCNC(N)=O)NC(=O)[C@@H](NC(=O)[C@H](C)NC(=O)[C@H](CO)NC(=O)[C@H](CO)NC(=O)[C@H](CCCNC(=N)N)NC(=O)[C@@H](NC(=O)[C@H](C)NC(=O)[C@H](Cc1ccc(O)cc1)NC(=O)[C@@H](NC(=O)CNC(=O)CNC(=O)[C@@H]1CCCN1C(=O)[C@@H](N)CO)C(C)C)[C@@H](C)O)C(C)C)C(=O)O [SPGGVYATRSSAVXL] (H-SPGGVYATRSSAV[Cit]L-OH)	–	–	–	–	IC50 (HLA-DRB1*01:01; [1]): 7.6 nM; IC50 (HLA-DRB1*04:01; [2]): 497 nM
CC[C@H](C)[C@H](NC(=O)[C@H](C)N)C(=O)N[C@@H](CC(N)=O)C(=O)N[C@H](C(=O)N[C@@H](CCC(=O)O)C(=O)N[C@@H](Cc1ccccc1)C(=O)N[C@@H](CCCCN)C(=O)N[C@@H](CC(N)=O)C(=O)N[C@H](C(=O)N[C@@H](CCCNC(N)=O)C(=O)N[C@H](C(=O)N[C@@H](CC(N)=O)C(=O)N[C@@H](CCC(=O)O)C(=O)N[C@@H](CCCCN)C(=O)N[C@H](C(=O)O)C(C)C)[C@@H](C)O)[C@@H](C)O)[C@@H](C)O [AINTEFKNTXTNEKV] (H-AINTEFKNT[Cit]TNEKV-OH)	–	–	–	–	IC50 (HLA-DRB1*01:01; [1]): 2370 nM; IC50 (HLA-DRB1*04:01; [2]): 931 nM
C[C@H](NC(=O)CNC(=O)[C@H](CCCCN)NC(=O)[C@@H]1CCCN1C(=O)CNC(=O)[C@@H](N)CC(=O)O)C(=O)N[C@@H](CCCNC(=N)N)C(=O)NCC(=O)N[C@@H](CC(=O)O)C(=O)N[C@@H](CO)C(=O)NCC(=O)N1CCC[C@H]1C(=O)N1CCC[C@H]1C(=O)NCC(=O)N[C@@H](CCCNC(N)=O)C(=O)O [DGPKGARGDSGPPGX] (H-DGPKGARGDSGPPG[Cit]-OH; N-terminus and C-terminus assumed)	> 40000	> 40000	–	–	DRB1*04:01 binding capacity, WT/cit ratio (HLA-DRB1*04:01; ratio of WT IC50 to Cit IC50, >1 = citrullination increases binding): 0.548
CC[C@H](C)[C@H](NC(=O)CNC(=O)[C@H](CCCNC(=N)N)NC(=O)[C@H](CCC(N)=O)NC(=O)CNC(=O)[C@H](C)NC(=O)[C@H](CC(C)C)NC(=O)CNC(=O)[C@H](CCC(N)=O)NC(=O)[C@@H]1CCCN1C(=O)CNC(=O)[C@@H]1CCCN1)C(=O)N[C@H](C(=O)NCC(=O)N[C@@H](CC(C)C)C(=O)O)C(C)C [Collagen 971 WT]	–	–	7.9	7160	–
